Test results published in patent US20230091225A1, “Bifunctional chimeric heterocyclic compounds for targeted degradation of androgen receptors and use thereof” (HINOVA PHARMACEUTICALS INC., priority 2019, published 2023).
Like-named read-outs stand apart in the source and are kept apart here.

Target: T1, androgen receptor (AR) (Homo sapiens, UniProt P10275)
T1 sequence (P10275 1-920): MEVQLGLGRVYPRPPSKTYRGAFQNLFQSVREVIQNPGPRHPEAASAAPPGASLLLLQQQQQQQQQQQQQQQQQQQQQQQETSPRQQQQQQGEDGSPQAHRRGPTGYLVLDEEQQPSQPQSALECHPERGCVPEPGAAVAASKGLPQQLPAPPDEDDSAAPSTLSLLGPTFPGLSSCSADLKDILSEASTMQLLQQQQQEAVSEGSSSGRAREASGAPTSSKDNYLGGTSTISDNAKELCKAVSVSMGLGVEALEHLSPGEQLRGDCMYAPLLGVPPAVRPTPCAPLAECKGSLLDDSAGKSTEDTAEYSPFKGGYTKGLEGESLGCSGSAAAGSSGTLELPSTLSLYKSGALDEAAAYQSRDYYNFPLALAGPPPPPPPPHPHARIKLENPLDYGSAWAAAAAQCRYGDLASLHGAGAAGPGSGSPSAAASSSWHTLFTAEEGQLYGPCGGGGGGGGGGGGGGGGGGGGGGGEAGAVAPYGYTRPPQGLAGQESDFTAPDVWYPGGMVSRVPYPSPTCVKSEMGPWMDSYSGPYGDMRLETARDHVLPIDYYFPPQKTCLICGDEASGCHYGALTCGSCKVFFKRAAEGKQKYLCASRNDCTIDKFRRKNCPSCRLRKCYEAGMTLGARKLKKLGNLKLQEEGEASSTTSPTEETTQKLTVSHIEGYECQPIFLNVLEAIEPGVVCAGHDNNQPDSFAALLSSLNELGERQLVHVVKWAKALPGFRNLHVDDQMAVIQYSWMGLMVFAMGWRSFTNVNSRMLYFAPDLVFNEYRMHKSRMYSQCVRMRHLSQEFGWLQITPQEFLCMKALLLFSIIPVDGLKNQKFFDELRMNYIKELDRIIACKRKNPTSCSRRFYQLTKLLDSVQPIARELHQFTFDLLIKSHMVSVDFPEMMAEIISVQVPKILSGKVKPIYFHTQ
Test: Degradation of androgen receptor (AR) protein in VCaP cells by ELISA
Assay type: cell-based
Settings: for Dmax: VCaP

[1] = AR degradation, VCaP cells, 16 h, ELISA, Table 3-1, read-out: DC50
[2] = AR degradation, VCaP cells, 16 h, ELISA, Table 3-1, read-out: Dmax (%)
[3] = AR degradation, VCaP cells, 16 h, ELISA, Table 3-1
[4] = AR degradation, VCaP cells, 16 h, ELISA, Table 3-2, read-out: DC50
[5] = AR degradation, VCaP cells, 16 h, ELISA, Table 3-2, read-out: Dmax (%)

SMILES	DC50 [1]	Dmax [2]	further results
N#Cc1ccc(O[C@H]2CC[C@H](NC(=O)c3ccc(N4CCC(N5CC6(CCN(c7cc8c(cc7F)C(=O)N(C7CCC(=O)NC7=O)C8=O)CC6)C5)CC4)nc3)CC2)cc1Cl (stereo partly drawn) [Compound 77, N-((1r,4r)-4-(3-chloro-4-cyanophenoxy)cyclohexyl)-6-(4-(7-(2-(2,6-dioxopiperidin-3-yl)-6-fluoro-1,3-dioxoisoindolin-5-yl)-2,7-diazaspiro[3.5]nonan-2-yl)piperidin-1-yl)nicotinamide]	< 10 nM	> 80%	–
CC1(C)[C@H](Oc2ccc(C#N)c(Cl)c2)C(C)(C)[C@H]1N1Cc2nc(C#C[C@H]3C[C@H](N4CCN(c5ccc6c(c5)C(=O)N(C5CCC(=O)NC5=O)C6=O)CC4)C3)ccc2C1=O (stereo partly drawn) [Compound 355]	< 10 nM	> 80%	–
CC1(C)C(Oc2ccc(C#N)c(Cl)c2)C(C)(C)C1N1Cc2nc(N3CCC(CN4CCN(c5cc6c(cc5F)C(=O)N([C@@H]5CCC(=O)NC5=O)C6)CC4)CC3)ccc2C1=O (stereo partly drawn) [Compound 212]	–	–	% degradation: C (key: A: >80%; B: 79%-50%; C: 49%-25%; D: <25%)
COc1cc(O[C@H]2CC[C@H](NC(=O)c3ccc(N4CCC(CN5CCC6(CC5)CN(c5ccc7c(c5)C(=O)N(C5CCC(=O)NC5=O)C7=O)C6)CC4)nn3)CC2)ccc1C#N (stereo partly drawn) [Compound 276, N-((1r,4r)-4-(4-cyano-3-methoxyphenoxy)cyclohexyl)-6-(4-((2-(2-(2,6-dioxopiperidin-3-yl)-1,3-dioxoisoindolin-5-yl)-2,7-diazaspiro[3.5]nonan-7-yl)methyl)piperidin-1-yl)pyridazine-3-carboxamide]	< 10 nM	> 80%	–
CC1(C)[C@H](Oc2ccc(C#N)c(Cl)c2)C(C)(C)[C@H]1N1Cc2nc(C#CC3CCC(N4CC5(CCN(c6cc7c(cc6F)C(=O)N(C6CCC(=O)NC6=O)C7=O)C5)C4)CC3)ccc2C1=O (stereo partly drawn) [Compound 370]	100 to 300 nM	–	Dmax (%) [3]: ++ (60%-40%)
N#Cc1ccc(O[C@H]2CC[C@H](NC(=O)c3nnc(N4CCC(CN5CCC6(CC5)CN(c5ccc7c(c5)C(=O)N(C5CCC(=O)NC5=O)C7=O)C6)CC4)o3)CC2)cc1Cl (stereo partly drawn) [Compound 414]	–	–	DC50 [4]: < 10 nM; Dmax [5]: > 80%
N#Cc1ccc(O[C@H]2CC[C@H](NC(=O)c3cnn([C@H]4CC[C@H](CN5CCC6(CC5)CN(c5ccc7c(c5)C(=O)N(C5CCC(=O)NC5=O)C7=O)C6)CC4)n3)CC2)cc1Cl (stereo partly drawn) [Compound 116, N-((1r,4R)-4-(3-chloro-4-cyanophenoxy)cyclohexyl)-2-((1r,4R)-4-((2-(2-(2,6-dioxopiperidin-3-yl)-1,3-dioxoisoindolin-5-yl)-2,7-diazaspiro[3.5]nonan-7-yl)methyl)cyclohexyl)-2H-1,2,3-triazole-4-carboxamide]	< 10 nM	> 80%	–
N#Cc1ccc(O[C@H]2CC[C@H](NC(=O)c3ccc(N4CC5(CN(C[C@@H]6[C@H]7CN(c8cc9c(cc8F)C(=O)N(C8CCC(=O)NC8=O)C9=O)C[C@@H]67)C5)C4)nn3)CC2)cc1Cl (stereo partly drawn) [Compound 92]	< 10 nM	> 80%	–
CC1(C)[C@H](Oc2ccc(C#N)c(Cl)c2)C(C)(C)[C@H]1N1Cc2nc(C#CC3CCC(N4CCC5(CCN(c6ccc7c(c6)C(=O)N(C6CCC(=O)NC6=O)C7=O)C5)C4)CC3)ccc2C1=O (stereo partly drawn) [Compound 364, 2-Chloro-4-((1r,3r)-3-(2-((4-(7-(2-(2,6-dioxopiperidin-3-yl)-1,3-dioxoisoindolin-5-yl)-2,7-Diazaspiro[4.4]nonan-2-yl)cyclohexyl)ethynyl)-5-oxo-5,7-dihydro-6H-pyrrolo[3,4-b]pyridin-6-yl)-2,2,4,4-tetramethylcyclobutoxy) benzonitrile]	< 10 nM	> 80%	–
N#Cc1ccc(O[C@H]2CC[C@H](NC(=O)c3cnc(N4CCC5(CN(CC6CCN(c7cc8c(cc7F)C(=O)N(C7CCC(=O)NC7=O)C8=O)CC6)C5)C4)cn3)CC2)cc1Cl (stereo partly drawn) [Compound 189, N-((1r,4r)-4-(3-chloro-4-cyanophenoxy)cyclohexyl)-5-(2-((1-(2-(2,6-dioxopiperidin-3-yl)-6-fluoro-1,3-dioxoisoindolin-5-yl)piperidine-4-yl)methyl)-2,6-diazaspiro[3.4]octan-6-yl)pyrazine-2-carboxamide]	< 10 nM	> 80%	–
CC1(C)[C@H](Oc2ccc(C#N)c(Cl)c2)C(C)(C)[C@H]1N1Cc2nc(C#CC3CN(C4CN(c5cc6c(cc5F)C(=O)N(C5CCC(=O)NC5=O)C6=O)C4)C3)ccc2C1=O (stereo partly drawn) [Compound 322]	< 10 nM	60 to 80%	–
COc1cc(O[C@H]2C(C)(C)[C@H](N3Cc4nc(C#C[C@H]5C[C@H](N6CCN(c7cc8c(cc7F)C(=O)N(C7CCC(=O)NC7=O)C8=O)CC6)C5)ccc4C3=O)C2(C)C)ccc1C#N (stereo partly drawn) [Compound 393]	–	–	DC50 [4]: 10 to 100 nM; Dmax [5]: > 80%
N#Cc1ccc(O[C@H]2CC[C@H](NC(=O)c3ccc(N4CCC(CN5CCC6(CC5)CN(c5ccc7c(=O)n(C8CCC(=O)NC8=O)cnc7c5)C6)CC4)nn3)CC2)cc1Cl (stereo partly drawn) [Compound 247]	< 10 nM	> 80%	–
N#Cc1ccc(O[C@H]2CC[C@H](NC(=O)c3ccc(N4CC5(CC(N6CCN(c7cc8c(cc7F)C(=O)N(C7CCC(=O)NC7=O)C8=O)CC6)C5)C4)nn3)CC2)cc1Cl (stereo partly drawn) [Compound 129, N-((1r,4r)-4-(3-chloro-4-cyanophenoxy)cyclohexyl)-6-(6-(4-(2-(2,6-dioxopiperidin-3-yl)-6-fluoro-1,3-dioxoisoindolin-5-yl)piperazin-1-yl)-2-azaspiro[3.3]heptan-2-yl)pyridazine-3-amide]	< 10 nM	> 80%	–
CC1(C)[C@H](Oc2ccc(C#N)c(Cl)c2)C(C)(C)[C@H]1N1Cc2nc(C#CC3CCC(N4CCC5(CN(c6cc7c(cc6F)C(=O)N(C6CCC(=O)NC6=O)C7=O)C5)C4)CC3)ccc2C1=O (stereo partly drawn) [Compound 374]	< 10 nM	> 80%	–
C[C@@H]1CN(c2ccc(C(=O)N[C@H]3CC[C@H](Oc4ccc(C#N)c(Cl)c4)CC3)nn2)CCN1C[C@H]1[C@@H]2CN(c3cc4c(cc3F)C(=O)N(C3CCC(=O)NC3=O)C4=O)C[C@@H]21 (stereo partly drawn) [Compound 265]	10 to 100 nM	60 to 80%	–
N#Cc1ccc(OC2CCC(NC(=O)c3ccc(N4CCC(CN5CCC6(CC5)CN(c5ccc7c(c5)CN(C5CCC(=O)NC5=O)C7=O)C6)CC4)nn3)CC2)cc1Cl (stereo not drawn) [Compound 196, N-((1r,4r)-4-(3-chloro-4-cyanophenoxy)cyclohexyl)-6-(4-((2-(2-(2,6-dioxopiperidin-3-yl)-1-oxoisoindolin-5-yl)-2,7-diazaspiro[3.5]nonan-7-yl)methyl)piperidin-1-yl)pyridazine-3-formamide]	< 10 nM	–	Dmax (%) [3]: ++++ (>80%)
CC1(C)[C@H](Oc2ccc(C#N)c(Cl)c2)C(C)(C)[C@H]1N1Cc2nc(C#CC3CCC(N4CC5(CN(c6cc7c(cc6F)C(=O)N(C6CCC(=O)NC6=O)C7=O)C5)C4)CC3)ccc2C1=O (stereo partly drawn) [Compound 341]	10 to 100 nM	60 to 80%	–
N#Cc1ccc(O[C@H]2CC[C@H](NC(=O)c3nnc(N4CCC(CN5CCC6(CC5)CN(c5cc7c(cc5F)C(=O)N(C5CCC(=O)NC5=O)C7=O)C6)CC4)s3)CC2)cc1Cl (stereo partly drawn) [Compound 244]	< 10 nM	–	Dmax: > 80%
N#Cc1ccc(O[C@H]2CC[C@H](NC(=O)c3ccc(N4CC5(CCN(C6CCN(c7cc8c(cc7F)C(=O)N(C7CCC(=O)NC7=O)C8=O)CC6)CC5)C4)nn3)CC2)cc1Cl (stereo partly drawn) [Compound 97, N-((1r,4r)-4-(3-chloro-4-cyanophenoxy)cyclohexyl)-6-(7-(1-(2-(2,6-dioxopiperidin-3-yl)-6-fluoro-1,3-dioxoisoindolin-5-yl)piperidine-4-yl)-2,7-diazaspiro[3.5]nonan-2-yl)pyridazine-3-carboxamide]	< 10 nM	–	Dmax: > 80%
N#Cc1ccc(O[C@H]2CC[C@H](NC(=O)c3ccc(N4CCC(CN5CCC6(CC5)CN(c5ccc7c(c5)C(=O)N(C5CCC(=O)NC5=O)C7=O)C6)CC4)nn3)CC2)cc1Br (stereo partly drawn) [Compound 274, N-((1r,4r)-4-(3-bromo-4-cyanophenoxy)cyclohexyl)-6-(4-((2-(2-(2-,2,6-dioxopiperidin-3-yl)-1,3-dioxoisoindolin-5-yl)-2,7-diazaspiro[3.5]nonan-7-yl)methyl)piperidin-1-yl)pyridazine-3-carboxamide]	–	–	DC50: < 10 nM; Dmax: > 80%
N#Cc1ccc(O[C@H]2CC[C@H](NC(=O)c3nnc(N4CCC(N5CCC6(CC5)CN(c5cc7c(cc5F)C(=O)N(C5CCC(=O)NC5=O)C7=O)C6)CC4)s3)CC2)cc1Cl (stereo partly drawn) [Compound 83]	> 300 nM	–	Dmax: < 40%
C[C@H]1CN(c2cnc(C(=O)N[C@H]3CC[C@H](Oc4ccc(C#N)c(Cl)c4)CC3)cn2)CCN1C[C@H]1[C@@H]2CN(c3cc4c(cc3F)C(=O)N(C3CCC(=O)NC3=O)C4=O)C[C@@H]21 (stereo partly drawn) [Compound 169]	10 to 100 nM	60 to 80%	–
